{"source": "the supplement of paper PMC11208160", "assay": "recombinant barcode read abundance after kanamycin selection (control-corrected) (log10(CPM+1)); higher = more efficient recombination; sequences stand for … in AGTGCAGAGAAAATCGGCCAGTTTTCTCTGCCTGCAGTCCGCATGCCGT…ATTTATGCAGCGGACTGCCTTTCTCCCAAAGTGATAAACCGGACAGTATCATGGACCGGTTTTCCCGGTAATCCGTATTTGCAAGGTTGGTTTCACT; site = the 11-nt target", "outline": "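A promoter, a target, a barcode and the first 104 bridge RNA bases under J23119 made up each oligo. Oligos were Gibson-cloned into a vector bearing the other 73 bp and a T7-inducible recombinase, then co-electroporated into E. coli with a donor plasmid and plated in duplicate on chloramphenicol/ampicillin LB agar (control) or chloramphenicol/ampicillin/kanamycin with 0.1 mM IPTG. Recombination efficiency is the averaged, control-corrected counts per million of recombinant-junction barcodes. Reported values are log10(CPM+1).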"}
{"sequence": "GGACACCCTTGGGTTCTAACCTGTTGCCTCA [GGACACCCTAG_LTGcore_CT_RTGcore_TG] (site GGACACCCTAG) (LTG core: CT, RTG core: TG)", "values": [{"measurement": "recombinant barcode read abundance (log10)", "result": 0.858}]}
{"sequence": "GGACACCGATGGGTTCTAACCTGTTGCCTTC [GGACACCCTAG_LTGcore_GA_RTGcore_GA] (site GGACACCCTAG) (LTG core: GA, RTG core: GA)", "values": [{"measurement": "recombinant barcode read abundance (log10)", "result": 0.0178}]}
{"sequence": "GGACACCGTTGGGTTCTAACCTGTTGCCTAG [GGACACCCTAG_LTGcore_GT_RTGcore_CT] (site GGACACCCTAG) (LTG core: GT, RTG core: CT)", "values": [{"measurement": "recombinant barcode read abundance (log10)", "result": 0.32}]}
{"sequence": "GGCTCCCAGTGGGTTCTAACCTGTTGCGGCT [GGCTCCCCTCC_LTGcore_AG_RTGcore_AG] (site GGCTCCCCTCC) (LTG core: AG, RTG core: AG)", "values": [{"measurement": "recombinant barcode read abundance (log10)", "result": 0.206}]}
{"sequence": "GGCTCCCCATGGGTTCTAACCTGTTGCGGTG [GGCTCCCCTCC_LTGcore_CA_RTGcore_CA] (site GGCTCCCCTCC) (LTG core: CA, RTG core: CA)", "values": [{"measurement": "recombinant barcode read abundance (log10)", "result": 0.1}]}
{"sequence": "GGCTCCCCCTGGGTTCTAACCTGTTGCGGAG [GGCTCCCCTCC_LTGcore_CC_RTGcore_CT] (site GGCTCCCCTCC) (LTG core: CC, RTG core: CT)", "values": [{"measurement": "recombinant barcode read abundance (log10)", "result": 0}]}
{"sequence": "GGCTCCCCTTGGGTTCTAACCTGTTGCGGCA [GGCTCCCCTCC_LTGcore_CT_RTGcore_TG] (site GGCTCCCCTCC) (LTG core: CT, RTG core: TG)", "values": [{"measurement": "recombinant barcode read abundance (log10)", "result": 0.426}]}
{"sequence": "GGCTCCCCTTGGGTTCTAACCTGTTGCGGGT [GGCTCCCCTCC_LTGcore_CT_RTGcore_AC] (site GGCTCCCCTCC) (LTG core: CT, RTG core: AC)", "values": [{"measurement": "recombinant barcode read abundance (log10)", "result": 0.0344}]}
{"sequence": "GGCTCCCTCTGGGTTCTAACCTGTTGCGGGA [GGCTCCCCTCC_LTGcore_TC_RTGcore_TC] (site GGCTCCCCTCC) (LTG core: TC, RTG core: TC)", "values": [{"measurement": "recombinant barcode read abundance (log10)", "result": 0.238}]}
{"sequence": "GGCTCCCTGTGGGTTCTAACCTGTTGCGGAG [GGCTCCCCTCC_LTGcore_TG_RTGcore_CT] (site GGCTCCCCTCC) (LTG core: TG, RTG core: CT)", "values": [{"measurement": "recombinant barcode read abundance (log10)", "result": 0.046}]}
{"sequence": "GGGAGCCACTGGGTTCTAACCTGTTGCTGAG [GGGAGCCCTCA_LTGcore_AC_RTGcore_CT] (site GGGAGCCCTCA) (LTG core: AC, RTG core: CT)", "values": [{"measurement": "recombinant barcode read abundance (log10)", "result": 0}]}
{"sequence": "GGGAGCCAGTGGGTTCTAACCTGTTGCTGAG [GGGAGCCCTCA_LTGcore_AG_RTGcore_CT] (site GGGAGCCCTCA) (LTG core: AG, RTG core: CT)", "values": [{"measurement": "recombinant barcode read abundance (log10)", "result": 0.493}]}
{"sequence": "GGGAGCCAGTGGGTTCTAACCTGTTGCTGCT [GGGAGCCCTCA_LTGcore_AG_RTGcore_AG] (site GGGAGCCCTCA) (LTG core: AG, RTG core: AG)", "values": [{"measurement": "recombinant barcode read abundance (log10)", "result": 0.523}]}
{"sequence": "GGGAGCCCATGGGTTCTAACCTGTTGCTGTG [GGGAGCCCTCA_LTGcore_CA_RTGcore_CA] (site GGGAGCCCTCA) (LTG core: CA, RTG core: CA)", "values": [{"measurement": "recombinant barcode read abundance (log10)", "result": 0.536}]}
{"sequence": "GGGAGCCCCTGGGTTCTAACCTGTTGCTGAG [GGGAGCCCTCA_LTGcore_CC_RTGcore_CT] (site GGGAGCCCTCA) (LTG core: CC, RTG core: CT)", "values": [{"measurement": "recombinant barcode read abundance (log10)", "result": 1.11}]}
{"sequence": "GGGAGCCCGTGGGTTCTAACCTGTTGCTGCG [GGGAGCCCTCA_LTGcore_CG_RTGcore_CG] (site GGGAGCCCTCA) (LTG core: CG, RTG core: CG)", "values": [{"measurement": "recombinant barcode read abundance (log10)", "result": 0.113}]}
{"sequence": "GGGAGCCCTTGGGTTCTAACCTGTTGCTGTC [GGGAGCCCTCA_LTGcore_CT_RTGcore_GA] (site GGGAGCCCTCA) (LTG core: CT, RTG core: GA)", "values": [{"measurement": "recombinant barcode read abundance (log10)", "result": 0.0409}]}
{"sequence": "GGGAGCCGATGGGTTCTAACCTGTTGCTGAG [GGGAGCCCTCA_LTGcore_GA_RTGcore_CT] (site GGGAGCCCTCA) (LTG core: GA, RTG core: CT)", "values": [{"measurement": "recombinant barcode read abundance (log10)", "result": 0.0418}]}
{"sequence": "GGGAGCCGCTGGGTTCTAACCTGTTGCTGGC [GGGAGCCCTCA_LTGcore_GC_RTGcore_GC] (site GGGAGCCCTCA) (LTG core: GC, RTG core: GC)", "values": [{"measurement": "recombinant barcode read abundance (log10)", "result": 0.0416}]}
{"sequence": "GGGAGCCTATGGGTTCTAACCTGTTGCTGAG [GGGAGCCCTCA_LTGcore_TA_RTGcore_CT] (site GGGAGCCCTCA) (LTG core: TA, RTG core: CT)", "values": [{"measurement": "recombinant barcode read abundance (log10)", "result": 0.0839}]}
{"sequence": "GGGAGCCTATGGGTTCTAACCTGTTGCTGTA [GGGAGCCCTCA_LTGcore_TA_RTGcore_TA] (site GGGAGCCCTCA) (LTG core: TA, RTG core: TA)", "values": [{"measurement": "recombinant barcode read abundance (log10)", "result": 0.157}]}
{"sequence": "GGGCGGAACTGGGTTCTAACCTGTTGCGGAG [GGGCGGACTCC_LTGcore_AC_RTGcore_CT] (site GGGCGGACTCC) (LTG core: AC, RTG core: CT)", "values": [{"measurement": "recombinant barcode read abundance (log10)", "result": 0.449}]}
{"sequence": "GGGCGGAAGTGGGTTCTAACCTGTTGCGGAG [GGGCGGACTCC_LTGcore_AG_RTGcore_CT] (site GGGCGGACTCC) (LTG core: AG, RTG core: CT)", "values": [{"measurement": "recombinant barcode read abundance (log10)", "result": 0.0524}]}
{"sequence": "GGGCGGAAGTGGGTTCTAACCTGTTGCGGCT [GGGCGGACTCC_LTGcore_AG_RTGcore_AG] (site GGGCGGACTCC) (LTG core: AG, RTG core: AG)", "values": [{"measurement": "recombinant barcode read abundance (log10)", "result": 0.193}]}
{"sequence": "GGGCGGACCTGGGTTCTAACCTGTTGCGGGG [GGGCGGACTCC_LTGcore_CC_RTGcore_CC] (site GGGCGGACTCC) (LTG core: CC, RTG core: CC)", "values": [{"measurement": "recombinant barcode read abundance (log10)", "result": 0.132}]}
{"sequence": "GGGCGGACTTGGGTTCTAACCTGTTGCGGAA [GGGCGGACTCC_LTGcore_CT_RTGcore_TT] (site GGGCGGACTCC) (LTG core: CT, RTG core: TT)", "values": [{"measurement": "recombinant barcode read abundance (log10)", "result": 1.23}]}
{"sequence": "GGGCGGACTTGGGTTCTAACCTGTTGCGGAT [GGGCGGACTCC_LTGcore_CT_RTGcore_AT] (site GGGCGGACTCC) (LTG core: CT, RTG core: AT)", "values": [{"measurement": "recombinant barcode read abundance (log10)", "result": 0.0401}]}
{"sequence": "GGGCGGACTTGGGTTCTAACCTGTTGCGGCA [GGGCGGACTCC_LTGcore_CT_RTGcore_TG] (site GGGCGGACTCC) (LTG core: CT, RTG core: TG)", "values": [{"measurement": "recombinant barcode read abundance (log10)", "result": 0.146}]}
{"sequence": "GGGCGGAGATGGGTTCTAACCTGTTGCGGAG [GGGCGGACTCC_LTGcore_GA_RTGcore_CT] (site GGGCGGACTCC) (LTG core: GA, RTG core: CT)", "values": [{"measurement": "recombinant barcode read abundance (log10)", "result": 0.539}]}
{"sequence": "GGGCGGAGCTGGGTTCTAACCTGTTGCGGAG [GGGCGGACTCC_LTGcore_GC_RTGcore_CT] (site GGGCGGACTCC) (LTG core: GC, RTG core: CT)", "values": [{"measurement": "recombinant barcode read abundance (log10)", "result": 0.0821}]}
{"sequence": "GGGCGGAGGTGGGTTCTAACCTGTTGCGGAG [GGGCGGACTCC_LTGcore_GG_RTGcore_CT] (site GGGCGGACTCC) (LTG core: GG, RTG core: CT)", "values": [{"measurement": "recombinant barcode read abundance (log10)", "result": 0.0907}]}
{"sequence": "GGGCGGAGGTGGGTTCTAACCTGTTGCGGCC [GGGCGGACTCC_LTGcore_GG_RTGcore_GG] (site GGGCGGACTCC) (LTG core: GG, RTG core: GG)", "values": [{"measurement": "recombinant barcode read abundance (log10)", "result": 0.502}]}
{"sequence": "GGGCGGATATGGGTTCTAACCTGTTGCGGAG [GGGCGGACTCC_LTGcore_TA_RTGcore_CT] (site GGGCGGACTCC) (LTG core: TA, RTG core: CT)", "values": [{"measurement": "recombinant barcode read abundance (log10)", "result": 0.0954}]}
{"sequence": "GGGCGGATATGGGTTCTAACCTGTTGCGGTA [GGGCGGACTCC_LTGcore_TA_RTGcore_TA] (site GGGCGGACTCC) (LTG core: TA, RTG core: TA)", "values": [{"measurement": "recombinant barcode read abundance (log10)", "result": 0.0888}]}
